Measured values as given in patent US6465258B1, “FXR receptor-mediated modulation cholesterol metabolism” (Tularik, Inc., priority 1999, dated 2002).
“Also recorded” adds a separate entry of the source.

Tests used:
LXRα [1] = biological target: T1, LXRα (Homo sapiens, UniProt Q13133); test: ELISA peptide sensor assay, LXRα control; assay type: binding; conditions: FIG. 5C bottom panel
T1 sequence (Q13133 1-447): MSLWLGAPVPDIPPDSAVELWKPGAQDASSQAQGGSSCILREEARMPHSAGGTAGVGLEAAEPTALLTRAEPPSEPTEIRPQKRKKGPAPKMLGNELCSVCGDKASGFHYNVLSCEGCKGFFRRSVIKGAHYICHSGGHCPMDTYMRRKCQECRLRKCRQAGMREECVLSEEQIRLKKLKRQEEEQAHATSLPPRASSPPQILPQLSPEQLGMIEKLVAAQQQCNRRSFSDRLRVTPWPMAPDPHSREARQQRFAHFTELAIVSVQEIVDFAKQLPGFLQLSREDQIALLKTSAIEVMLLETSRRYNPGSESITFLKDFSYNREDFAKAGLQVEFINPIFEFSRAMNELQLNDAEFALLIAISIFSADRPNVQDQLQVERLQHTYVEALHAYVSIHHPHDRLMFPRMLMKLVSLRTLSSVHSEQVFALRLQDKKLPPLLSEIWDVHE
From the text: A peptide sensor was used.

LXRα [2] = biological target: T1, LXRα; test: FRET (HTRF) LXRα receptor control; assay type: binding; conditions: FIG. 5B bottom panel
full-length FXR = biological target: T2, full-length FXR (Homo sapiens, UniProt Q96RI1); test: pGL3 3X FXRE luciferase reporter with full-length FXR in HepG2 cells; assay type: cell-based; conditions: panel of bile acids, FIG. 4C
T2 construct: a plasmid expressing full-length FXR (PFXR); expressed in transfected cells; host or cells: HepG2
T2 sequence (Q96RI1 1-486): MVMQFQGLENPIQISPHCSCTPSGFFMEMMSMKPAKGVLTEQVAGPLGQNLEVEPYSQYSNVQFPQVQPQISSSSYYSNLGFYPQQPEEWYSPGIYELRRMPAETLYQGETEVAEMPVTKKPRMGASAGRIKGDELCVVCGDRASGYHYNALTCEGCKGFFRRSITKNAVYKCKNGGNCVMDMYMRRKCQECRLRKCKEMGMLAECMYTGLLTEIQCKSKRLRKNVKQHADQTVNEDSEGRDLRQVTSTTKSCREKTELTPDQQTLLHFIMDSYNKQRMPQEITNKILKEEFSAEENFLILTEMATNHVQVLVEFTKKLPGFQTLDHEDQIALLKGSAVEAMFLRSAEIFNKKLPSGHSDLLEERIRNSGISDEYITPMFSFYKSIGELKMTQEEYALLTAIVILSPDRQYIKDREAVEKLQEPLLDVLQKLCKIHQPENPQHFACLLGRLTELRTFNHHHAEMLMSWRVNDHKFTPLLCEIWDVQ
From the text: The ability of different bile acids and derivatives to activate FXR-mediated transactivation was also examined.

FXR / cyp7a promoter = conditions: HepG2 cells
[3] = tested on: HNF4α, LXRα, RXRα and LXRβ ligand-binding domains fused to Gal4 DBD; test: GAL4 DBD fusions with LBDs of other nuclear receptors, luciferase reporter in HepG2 cells; assay type: cell-based; conditions: 50 μM CDCA, FIG. 1A

C[C@H](CCC1OC1(C)C)[C@H]1CC[C@H]2[C@@H]3CC=C4C[C@@H](O)CC[C@]4(C)[C@H]3CC[C@]12C (stereo partly drawn) [24,25 epoxycholesterol]
binding of sensor peptide to LXRα control (ELISA) (LXRα [1]): increased binding
binding of LXRα receptor control by FRET (LXRα [2]): affected

CC(CCC(=O)NCC(=O)O)C1CCC2C3C(O)CC4CC(O)CCC4(C)C3CCC12C (stereo not drawn) [GCDCA, glycochenodeoxycholic acid]
induction of luciferase reporter activity (FXR-mediated transactivation), rank among bile acids (full-length FXR): greatest induction

C[C@H](CCC(=O)O)[C@H]1CC[C@H]2[C@@H]3[C@H](O)C[C@@H]4C[C@H](O)CC[C@]4(C)[C@H]3CC[C@]12C [CDCA, chenodeoxycholic acid]
suppression of CYP7 expression by nuclear receptors in presence of CDCA (FXR / cyp7a promoter; 10 μM CDCA, FXR vs CPF, HNF4α, LXRα, RXRα, FIG. 2A): Only FXR suppressed CYP7 expression
FXR-mediated suppression of CYP7 expression, rank among bile acids (FXR / cyp7a promoter; panel of bile acids, FIG. 4D): highest level of suppression; also recorded: largest repression
activation of ligand binding domains of other nuclear receptors fused to GAL4 DBD [3]: not activated
